Our source for the Activity, IC50 and zone of inhibition values is ChEMBL document CHEMBL1158877, “Sesquiterpenoids of the drimane class from a sponge of the genus Dysidea” (J Nat Prod, 1997).

Active and inactive are the calls of the source. No cut-off for these calls is given here.

Experiment [1] concerns Photobacterium leiognathi. The experiment is described as follows: Antimicrobial activity against Photobacterium leiognathi at 10 ug/ml by paper disk method. The experiment is classed as functional.
The nature of experiment [2]: Inhibition of PLA2.
The subject of experiment [3] is Photobacterium leiognathi. In words: Antimicrobial activity against Photobacterium leiognathi by bioluminescence. The experiment is classed as functional, organism-based.
Experiment [4] can be described thus: Inhibition of Na+/K+-ATPase.

As to `CC(=O)O[C@@H]1OC(=O)C2=CC[C@H]3C(C)(C)CCC[C@]3(C)[C@H]21`, the outcome in experiment [1], in experiment [2], in experiment [3] and in experiment [4] was inactive.
Consider `CC1(C)CCC[C@]2(C)[C@H]3C(=O)OC[C@@H]3CC[C@@H]12`, for which the outcome in experiment [1] was inactive. Moreover, the 50% inhibitory concentration (IC50) in experiment [2] was 113 µM; in experiment [3], 90 µM; in experiment [4], 45 µM.
For `CC1(C)CCC[C@]2(C)/C(=C/O)C(=O)CC[C@@H]12`, the outcome in experiment [1], in experiment [2], in experiment [3] and in experiment [4] was inactive.
For `CC(=O)OC[C@H]1[C@@H](OC(C)=O)CC[C@H]2C(C)(C)CCC[C@]12C`, the outcome in experiment [1], in experiment [2] and in experiment [4] was inactive. Also, the IC50 in experiment [3] is 90 µM.
For the compound `CO[C@@H]1O[C@H](O)[C@@]2(O)CC[C@H]3C(C)(C)CCC[C@]3(C)[C@@H]12`, the result in experiment [1], in experiment [2], in experiment [3] and in experiment [4] was inactive.
Turning to `CC(=O)O[C@@H]1OC(=O)C2=C1[C@@]1(C)CCCC(C)(C)[C@@H]1CC2`, the outcome in experiment [1], in experiment [2] and in experiment [3] was inactive. In experiment [4], inhibition was half-maximal at 98 µM (IC50).
As to `CC(=O)OC[C@H]1CC[C@H]2C(C)(C)CCC[C@]2(C)[C@H]1COC(C)=O`, the result in experiment [1], in experiment [2], in experiment [3] and in experiment [4] was inactive.
Consider `CC1(C)CCC[C@]2(C)[C@@H](C=O)C(C=O)=CC[C@@H]12` [POLYGODIAL], for which the zone of inhibition at 10 µg/mL in experiment [1] (read-out: IZ) stood at 8 mm. In addition, the outcome in experiment [2] was inactive. Further, the IC50 in experiment [3] is 11.4 µM; in experiment [4], 82 µM.
With `CC(=O)O[C@@H]1OC=C2CC[C@H]3C(C)(C)CCC[C@]3(C)[C@H]21`, the outcome in experiment [1], in experiment [2] and in experiment [4] was inactive. In experiment [3], the IC50 was 90 µM.
Turning to `CO[C@@H]1OC[C@H]2CC[C@H]3C(C)(C)CCC[C@]3(C)[C@H]21`, the result in experiment [1], in experiment [2] and in experiment [4] was inactive. Besides, inhibition in experiment [3] was half-maximal at 90 µM (IC50).

As usually defined, the IC50 is the midpoint of a concentration-inhibition curve. A higher IC50 goes with lower potency.
